This passage reports inhibition results from PMC8136825, “A nucleotide-sensing endonuclease from the Gabija bacterial defense system” (Nucleic Acids Research, 2021).

In the experiment the target is T1, GajA (Bacillus cereus, UniProt J8H9C1).
T1 construct: full length residues 1-578, N-terminal 6xHis tag kept (pET28a, NdeI/NotI), expressed in E. coli BL21(DE3), 69 kDa with tag; without GajB
Nature of the experiment: inhibition of lambda955 DNA cleavage, agarose gel densitometry. The format is biochemical. The conditions noted are these: 20 nM lambda955 DNA, 200 nM enzyme, 20 mM Tris-HCl pH 9, 1 mM MgCl2, 37 °C, 5 min; allosteric, ATPase-like domain.

T1 sequence (J8H9C1 whole entry, the tested form may be a part): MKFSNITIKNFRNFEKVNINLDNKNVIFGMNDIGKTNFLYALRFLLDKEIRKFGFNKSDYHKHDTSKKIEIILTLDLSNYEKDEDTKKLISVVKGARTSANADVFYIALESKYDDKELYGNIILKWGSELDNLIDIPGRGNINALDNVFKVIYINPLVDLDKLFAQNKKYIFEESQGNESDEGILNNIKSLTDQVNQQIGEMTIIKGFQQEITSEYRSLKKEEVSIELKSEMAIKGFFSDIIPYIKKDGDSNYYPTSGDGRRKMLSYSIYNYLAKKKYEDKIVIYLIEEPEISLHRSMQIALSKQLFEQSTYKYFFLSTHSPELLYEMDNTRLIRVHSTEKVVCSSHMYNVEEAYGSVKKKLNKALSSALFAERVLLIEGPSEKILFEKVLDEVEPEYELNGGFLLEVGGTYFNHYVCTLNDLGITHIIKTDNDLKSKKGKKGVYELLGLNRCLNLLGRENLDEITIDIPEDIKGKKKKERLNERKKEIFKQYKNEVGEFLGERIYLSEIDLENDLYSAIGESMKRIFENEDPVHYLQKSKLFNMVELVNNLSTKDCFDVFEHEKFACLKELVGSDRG

On to `Nc1ncnc2c1ncn2[C@@H]1O[C@H](COP(=O)(O)OP(=O)(O)O)[C@@H](O)[C@H]1O` [ADP], for which the inhibition result is “strongly inhibited by all NTP and dNTP, even ADP, while AMP had no significant effect”.
